From patent US11510875B2, “Adjuvant formulations comprising TLR4 agonists and methods of using the same” (priority 2012, dated 2022) come the findings set out here.

For assay [1], the system named is PfCelTOS. In kind it is in vivo, Plasmodium falciparum. As to conditions: BALB/c mice; SE dose 0.5%-2% experiment; GLA- or Montanide-containing vaccines.
In assay [2] the test system is PfCelTOS. The assay can be described thus: Antibody endpoint titers (IgG, IgG1, IgG2a) after immunization with PfCelTOS vaccine compositions. The following applies: BALB/c mice; SE dose 0.02%-2% experiment; GLA (SE or AF) compared to same vaccine composition without GLA.
Experimental: On the day of immunization, the emulsion was diluted with PBS to the specified oil concentrations and mixed with antigen and GLA-AF (where applicable). […] Throughout the manuscript the emulsion dose is referred to as the % v/v of oil in the final vaccine formulation; the ratio of oil to emulsifier is kept constant at all doses.
Endpoint titer was determined using Prism (GraphPad Software, La Jolla, Calif.) following a sigmoidal fit (variable slope) of the values determined at dilution, with the endpoint titer corresponding to a cutoff value (C) determined as described previously [10] with C=X+SDf, where X is the average and SD is the standard deviation of the negative sera control plate, and f is the multiplier at the 99.9% confidence level. A cutoff value of 0.1 OD was assigned if the cutoff value as determined above was less than 0.1 OD. On rare occasions, individual plate wells registered an abnormally high reading near the highest dilutions. These were excluded from the sigmoidal fit by employing the Grubb's test on the suspect value, comparing to the 4 dilutions surrounding the dilution in question at the 99% confidence level [11].
BALB/c mice were immunized 3 times with PfCelTOS vaccine compositions with 3 weeks between injections.

With glucopyranosyl lipid adjuvant [GLA], in the assay on PfCelTOS [1], the antibody-secreting plasma cells result is reported as “Higher numbers”. In addition, the IgG2a response entry in the assay with PfCelTOS [2] is “stronger”.
